According to patent publication US10538498B2, “1,3,4-oxadiazole sulfonamide derivative compounds as histone deacetylase 6 inhibitor, and the pharmaceutical composition comprising the same” (Chong Kun Dang Pharmaceutical Corp., priority 2015, dated 2020):

Molecular target: T1, human recombinant HDAC6 (Homo sapiens, UniProt Q9UBN7)
T1 construct: purchased Calbiochem 382180
T1 sequence (Q9UBN7 1-1215): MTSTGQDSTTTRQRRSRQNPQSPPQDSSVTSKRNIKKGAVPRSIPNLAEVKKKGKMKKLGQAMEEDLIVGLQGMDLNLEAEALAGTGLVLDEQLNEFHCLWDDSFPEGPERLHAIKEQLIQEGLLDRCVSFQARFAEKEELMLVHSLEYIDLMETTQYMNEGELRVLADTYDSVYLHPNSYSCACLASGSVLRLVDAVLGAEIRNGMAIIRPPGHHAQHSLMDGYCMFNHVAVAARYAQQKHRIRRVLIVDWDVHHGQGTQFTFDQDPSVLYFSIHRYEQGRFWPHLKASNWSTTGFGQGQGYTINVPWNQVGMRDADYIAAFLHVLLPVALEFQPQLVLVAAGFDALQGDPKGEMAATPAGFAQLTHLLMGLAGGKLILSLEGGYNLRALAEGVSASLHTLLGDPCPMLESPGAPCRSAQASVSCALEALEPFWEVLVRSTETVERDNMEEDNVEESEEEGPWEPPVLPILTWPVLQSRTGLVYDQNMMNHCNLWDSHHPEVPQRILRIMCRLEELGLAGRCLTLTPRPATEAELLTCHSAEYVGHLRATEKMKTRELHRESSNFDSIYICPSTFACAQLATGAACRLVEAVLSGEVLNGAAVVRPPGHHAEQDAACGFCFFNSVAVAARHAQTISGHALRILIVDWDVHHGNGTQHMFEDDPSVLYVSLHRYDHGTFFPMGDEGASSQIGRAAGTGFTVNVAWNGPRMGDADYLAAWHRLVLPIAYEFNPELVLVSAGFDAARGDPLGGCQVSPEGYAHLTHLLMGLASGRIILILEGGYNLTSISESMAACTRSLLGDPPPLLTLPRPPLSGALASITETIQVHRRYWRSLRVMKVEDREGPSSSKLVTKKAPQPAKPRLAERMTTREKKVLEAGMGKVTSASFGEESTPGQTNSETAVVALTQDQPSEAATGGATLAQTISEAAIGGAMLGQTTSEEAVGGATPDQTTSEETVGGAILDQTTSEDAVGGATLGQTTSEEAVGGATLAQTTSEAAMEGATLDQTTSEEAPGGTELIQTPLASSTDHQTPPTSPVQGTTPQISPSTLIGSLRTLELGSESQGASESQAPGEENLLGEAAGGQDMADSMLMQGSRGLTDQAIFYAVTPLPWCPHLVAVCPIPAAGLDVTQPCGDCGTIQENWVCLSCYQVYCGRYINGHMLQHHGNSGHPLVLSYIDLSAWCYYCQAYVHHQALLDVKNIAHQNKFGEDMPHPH
Experiment: HDAC6 enzyme activity inhibition assay (HDAC Fluorimetric Drug Discovery Kit)
Assay type: biochemical
Settings: for HDAC6 selectivity (fold): HDAC1 vs HDAC6; for IC50: same protocol as the HDAC1 enzyme activity test
How it was run: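 Fluorescence (Ex 360, Em 460) after 30 min developer step; IC50 from dose-response. Reaction: 0.3 μg recombinant enzyme, 10 μM Fluor de Lys-SIRT1 substrate, 5-fold compound dilutions, 60 min at 30° C. Same protocol for both isoforms.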

Row | SMILES | HDAC6 selectivity (fold) | IC50
1 | CS(=O)(=O)N(Cc1ccc(-c2nnc(C(F)F)o2)cn1)c1ccc2c(c1)CN(C1COC1)C2 [Compound 11735, N-((5-(5-(difluoromethyl)-1,3,4-oxadiazol-2-yl)pyridin-2-yl)methyl)-N-(2-(oxetan-3-yl)isoindolin-5-yl)methanesulfonamide] | 123 fold | 809 nM
2 | CC(=O)N1Cc2ccc(N(Cc3ccc(-c4nnc(C(F)F)o4)cn3)S(C)(=O)=O)cc2C1 [Compound 11736, N-(2-acetylisoindolin-5-yl)-N-((5-(5-(difluoromethyl)-1,3,4-oxadiazol-2-yl)pyridin-2-yl)methyl)methanesulfonamide] | 216 fold | 461 nM
3 | CS(=O)(=O)N(Cc1ccc(-c2nnc(C(F)F)o2)cc1)c1nccs1 [Compound 11739, N-(4-(5-(difluoromethyl)-1,3,4-oxadiazol-2-yl)benzyl)-N-(thiazol-2-yl)methanesulfonamide] | 148 fold | 675 nM
4 | CS(=O)(=O)N(Cc1ccc(-c2nnc(C(F)F)o2)cc1)c1ncco1 [Compound 11741, N-(4-(5-(difluoromethyl)-1,3,4-oxadiazol-2-yl)benzyl)-N-(oxazol-2-yl)methanesulfonamide] | 57 fold | 1740 nM
5 | CC(C)c1nc2ccc(N(Cc3ccc(-c4nnc(C(F)F)o4)cc3)S(C)(=O)=O)cc2s1 [Compound 11744, N-(4-(5-(difluoromethyl)-1,3,4-oxadiazol-2-yl)benzyl)-N-(2-isopropylbenzo[d]thiazol-6-yl)methanesulfonamide] | 188 fold | 531 nM
6 | Cc1nn(C)c2ccc(N(Cc3ccc(-c4nnc(C(F)F)o4)cc3)S(C)(=O)=O)cc12 [Compound 11746, N-(4-(5-(difluoromethyl)-1,3,4-oxadiazol-2-yl)benzyl)-N-(1,3-dimethyl-1H-indazol-5-yl)methanesulfonamide] | 784 fold | 127 nM
7 | CS(=O)(=O)N(Cc1ccc(-c2nnc(C(F)F)o2)cc1F)c1ccc2c(c1)CCC2 [Compound 11747, N-(4-(5-(difluoromethyl)-1,3,4-oxadiazol-2-yl)-2-fluorobenzyl)-N-(2,3-dihydro-1H-inden-5-yl)methanesulfonamide] | 1050 fold | 95.2 nM
8 | CS(=O)(=O)N(Cc1ccc(-c2nnc(C(F)F)o2)cc1F)[C@@H]1CCc2ccccc21 [Compound 11748, (R)—N-(4-(5-(difluoromethyl)-1,3,4-oxadiazol-2-yl)-2-fluorobenzyl)-N-(2,3-dihydro-1H-inden-1-yl)methanesulfonamide] | 230 fold | 433 nM
9 | CS(=O)(=O)N(Cc1ccc(-c2nnc(C(F)F)o2)cc1F)[C@H]1CCc2ccccc21 [Compound 11749, (S)—N-(4-(5-(difluoromethyl)-1,3,4-oxadiazol-2-yl)-2-fluorobenzyl)-N-(2,3-dihydro-1H-inden-1-yl)methanesulfonamide] | 255 fold | 391 nM
10 | CN1CCc2nc(N(Cc3ccc(-c4nnc(C(F)F)o4)cc3)S(C)(=O)=O)sc2C1 [Compound 11750, N-(4-(5-(difluoromethyl)-1,3,4-oxadiazol-2-yl)benzyl)-N-(5-methyl-4,5,6,7-tetrahydrothiazolo[5,4-c]pyridin-2-yl)methanesulfonamide] | 77 fold | 1290 nM

Other lines, results leading:

Row | HDAC6 selectivity (fold) | IC50 | SMILES
11 | 1440 fold | 69.4 nM | CN1CCCN(CCS(=O)(=O)N(Cc2ccc(-c3nnc(C(F)F)o3)cc2)c2ccccc2)CC1 [Compound 11737, N-(4-(5-(difluoromethyl)-1,3,4-oxadiazol-2-yl)benzyl)-2-(4-methyl-1,4-diazepan-1-yl)-N-phenylethanesulfonamide]
12 | 1466 fold | 68.2 nM | O=S(=O)(CCN1CCC1)N(Cc1ccc(-c2nnc(C(F)F)o2)cc1)c1ccccc1 [Compound 11738, 2-(azetidin-1-yl)-N-(4-(5-(difluoromethyl)-1,3,4-oxadiazol-2-yl)benzyl)-N-phenylethanesulfonamide]
13 | 188 fold | 531 nM | CS(=O)(=O)N(Cc1ccc(-c2nnc(C(F)F)o2)cc1)c1nc2ccccc2s1 [Compound 11740, N-(benzo[d]thiazol-2-yl)-N-(4-(5-(difluoromethyl)-1,3,4-oxadiazol-2-yl)benzyl)methanesulfonamide]
14 | 418 fold | 239 nM | CC(C)n1ncc2ccc(N(Cc3ccc(-c4nnc(C(F)F)o4)cc3)S(C)(=O)=O)cc21 [Compound 11742, N-(4-(5-(difluoromethyl)-1,3,4-oxadiazol-2-yl)benzyl)-N-(1-isopropyl-1H-indazol-6-yl)methanesulfonamide]
15 | 1466 fold | 68.2 nM | CCn1ncc2ccc(N(Cc3ccc(-c4nnc(C(F)F)o4)cc3)S(C)(=O)=O)cc21 [Compound 11743, N-(4-(5-(difluoromethyl)-1,3,4-oxadiazol-2-yl)benzyl)-N-(1-ethyl-1H-indazol-6-yl)methanesulfonamide]
16 | 432 fold | 231 nM | Cn1c(=O)n(C)c2cc(N(Cc3ccc(-c4nnc(C(F)F)o4)cc3)S(C)(=O)=O)ccc21 [Compound 11745, N-(4-(5-(difluoromethyl)-1,3,4-oxadiazol-2-yl)benzyl)-N-(1,3-dimethyl-2-oxo-2,3-dihydro-1H-benzo[d]imidazol-5-yl) methanesulfonamide]
17 | 1170 fold | 85.4 nM | O=C(CN1CCN(CCS(=O)(=O)N(Cc2ccc(-c3nnc(C(F)F)o3)cc2)c2ccccc2)CC1)N1CCOCC1 [Compound 11751, N-(4-(5-(difluoromethyl)-1,3,4-oxadiazol-2-yl)benzyl)-2-(4-(2-morpholino-2-oxoethyl)piperazin-1-yl)-N-phenylethane-1-sulfonamide]
18 | 868 fold | 115 nM | O=S(=O)(CCN1CCCOCC1)N(Cc1ccc(-c2nnc(C(F)F)o2)cc1)c1ccccc1 [Compound 11752, N-(4-(5-(difluoromethyl)-1,3,4-oxadiazol-2-yl)benzyl)-2-(1,4-oxazepan-4-yl)-N-phenylethane-1-sulfonamide]
19 | 953 fold | 105 nM | O=S(=O)(CCN1CC[C@@H](F)C1)N(Cc1ccc(-c2nnc(C(F)F)o2)cc1)c1ccccc1 [Compound 11753, (R)—N-(4-(5-(difluoromethyl)-1,3,4-oxadiazol-2-yl)benzyl)-2-(3-fluoropyrrolidin-1-yl)-N-phenylethane-1-sulfonamide]
20 | 1420 fold | 70.4 nM | CN(C)[C@@H]1CCN(CCS(=O)(=O)N(Cc2ccc(-c3nnc(C(F)F)o3)cc2)c2ccccc2)C1 [Compound 11754, (R)—N-(4-(5-(difluoromethyl)-1,3,4-oxadiazol-2-yl)benzyl)-2-(3-(dimethylamino)pyrrolidin-1-yl)-N-phenylethane-1-sulfonamide]
21 | 1377 fold | 72.6 nM | CN(C)[C@H]1CCN(CCS(=O)(=O)N(Cc2ccc(-c3nnc(C(F)F)o3)cc2)c2ccccc2)C1 [Compound 11755, (S)—N-(4-(5-(difluoromethyl)-1,3,4-oxadiazol-2-yl)benzyl)-2-(3-(dimethylamino)pyrrolidin-1-yl)-N-phenylethane-1-sulfonamide]
